Results: patent US5639766A, “N-substituted azaheterocyclic carboxylic acids and esters thereof” (Novo Nordisk A/S, priority 1993, dated 1997)
Counter-ions that a name gives are not always drawn.

Assays:
GABA uptake = details: oral; Yunger, L. M. et al., 1984; cited from earlier work
[1] = system: GABA uptake from the synaptic cleft into presynaptic nerve terminals and glial cells; details: background statement; cited from earlier work
[2] = background statement; cited from earlier work
[^3 H]-GABA uptake = In vitro inhibition of [^3 H]-GABA uptake in rat cortical tissue; type: biochemical, Male wistar rat; details: rat cortical tissue homogenate, pH 7.5, 60 minutes at 30° C.
Experimental: Values for in vitro inhibition of [^3 H]-GABA uptake for the invention compounds were assessed essentially by the method of Fjalland (Acta Pharmacol. Toxicol. 1978, 42, 73-76). Male wistar rat cortical tissue was gently homogenized by hand using a glass/PTFE homogenizer in 10 volumes of 0.32M sucrose. Incubation was performed in a 40 mM tris HCl buffer (pH 7.5 at 30° C.) containing […], 4 mM MgSO4, […] and 10 mM glucose, for 60 minutes at 30° C. Values for inhibition of GABA uptake for some representative compounds are recorded in Table I.

Compound	orally active inhibitors of GABA uptake (GABA uptake)	IC50 ([^3 H]-GABA uptake) [nM]	other results
O=C(O)C1=CCCN(CCC=C(c2ccccc2)c2ccccc2)C1 [SK&F 100330A, N-(4,4-diphenyl-3-buten-1-yl)guvacine]	orally active inhibitors of GABA uptake		
O=C(O)C1CCCNC1 (centres unmarked) [3-piperidinecarboxylic acid]			inhibitor of GABA uptake [1]: well-known and potent inhibitor of GABA uptake; cross the blood-brain barrier [2]: unable to cross the blood-brain barrier
O=C(O)C1CCCN(CCC=C(c2ccccc2)c2cccs2)C1 (centres unmarked) [SK&F 100604J, N-(4-phenyl-4-(2-thienyl)-3-buten-1-yl)nipecotic acid]	orally active inhibitors of GABA uptake		
O=C(O)C1CCCN(CCC=C(c2ccccc2)c2ccccc2)C1 (centres unmarked) [SK&F 89976A, N-(4,4-diphenyl-3-buten-1-yl)nipecotic acid]	orally active inhibitors of GABA uptake		
O=C(O)[C@@H]1CCCN(CCON=C2CC(c3ccccc3)c3ccccc32)C1 (stereo partly drawn) [Example 5, (R)-1-(2-(((3-Phenyl-1-indanylidene)amino)oxy)ethyl)-3-piperidinecarboxylicacid hydrochloride]		1380	
(R)-1-(2-(((2-(Benzylidene)cyclohexylidene)amino)oxy)ethyl)-3-piperidinecarboxylic acid hydrochloride [Example 3]		9500	
O=C(O)[C@@H]1CCCN(CCON=C2c3ccccc3CCC2c2ccccc2)C1 (stereo partly drawn) [Example 4, (R)-1-(2-(((2-Phenyl-1,2,3,4-tetrahydro-1-naphthylidene)amino)oxy)ethyl)-3-piperidinecarboxylic acid hydrochloride]		819	
O=C(O)CC1CCN(CCC=C(c2ccccc2)c2ccccc2)C1 (stereo not drawn) [SK&F 100561, N-(4,4-diphenyl-3-buten-1-yl)-homo-β-proline]	orally active inhibitors of GABA uptake		
O=C(O)[C@@H]1CCCN(CCON=C2CCCC=C2c2ccccc2)C1 [Example 2, (R)-1-(2-(((2-Phenylcyclohex-2-enylidene)amino)oxy)ethyl)-3-piperidinecarboxylic acid hydrochloride]		417	
O=C(O)[C@@H]1CCCN(CCON=C2CCCCC2c2ccccc2)C1 (stereo partly drawn) [Example 1, (R)-1-(2-(((2-Phenylcyclohexylidene)amino)oxy)ethyl)-3-piperidinecarboxylicacid hydrochloride]		332	
